From patent publication US11964980B2, “Crystalline forms of (S)-1-(4-fluorophenyl)-1-(2-(4-(6-(1-methyl-1H-pyrazol-4-yl)pyrrolo[2,1- f][1,2,4]triazin-4-yl)piperazinyl)-pyrimidin-5-yl)ethan-1-amine and methods of making” (Blueprint Medicines Corporation, priority 2019, dated 2024)
In brackets after ≈: the same amount, converted by molar mass.

How the values were obtained:
[1] = Dynamic vapor sorption (DVS); format: physicochemical
Procedure: DVS: Dynamic Vapor Sorption (DVS) was performed using a DVS Intrinsic 1. The sample was loaded into a sample pan and suspended from a microbalance. A typical sample mass for DVS measurement was 25 mg. Nitrogen gas bubbled through distilled water provided the desired relative humidity. A typical measurement comprised the following steps: • 1. Equilibrate at 50% RH • 2. 50% to 2%. (50%, 40%, 30%, 20%, 10%, and 2%) • a. Hold minimum of 5 minutes and maximum of 60 minutes at each humidity. The pass criteria was less than 0.002% change; • 3. 2% to 95% (2%, 10%, 20%, 30%, 40%, 50%, 60%, 70%, 80%, 90%, 95%) • a. Hold minimum of 5 minutes and maximum of 60 minutes at each humidity. The pass criteria was less than 0.002% change; • 4. 95% to 2% (95%, 80%, 70%, 60%, 50%, 40%, 30%, 20%, 10%, 2%) • a. Hold minimum of 5 minutes and maximum of 60 minutes at each humidity. The pass criteria was less than 0.002% change; • 5. 2% to 50% (2%, 10%, 20%, 30%, 40%, 50%) • a. Hold minimum of 5 minutes and maximum of 60 minutes at each humidity. The pass criteria was less than 0.002% change.

[2] = Stability comparison of the crystalline forms; format: physicochemical; details: ambient temperature
[3] = system: patients; assay: Clinical trials employing crystalline Form A: adverse effects; format: in vivo, human
From the text: In clinical trials employing crystalline Form A of Compound (I), adverse effects were categorized by severity into Grades 1-5. Most adverse events reported were Grade 1 or 2, indicating crystalline Form A of Compound (I) is well-tolerated. […] Severe dose limiting toxicities for other TKIs may be a result of inhibiting a broad range of kinases.

[4] = for Solubility, FaSSGF: pH 1.67; for Solubility, FaSSIF: pH 6.57
Procedure: Fasted simulated intestinal fluid (FaSSIF) (pH=6.57) was prepared by dissolving NaOH pellets (0.105 g), NaH2PO4·H2O (0.9875 g), and NaCl (1.5475 g) in distilled water (225 mL) and adjusting the pH to 6.57 by adding 1 N NaOH solution and 1 N HCl. Water was then added to a volume of 250 mL to produce phosphate buffer. Biorelevant powder (0.56 g) was dissolved in the phosphate buffer (125 mL), then made up to 250 mL using phosphate buffer. The prepared solution was left standing for 2 hours and then used for solubility measurements.
Fasted simulated gastric fluid (FaSSGF) (pH=1.67) was prepared by dissolving NaCl (0.5 g) in distilled water (225 mL). The pH was adjusted to 1.67 using 1 N HCl, then the solution was made up to 250 mL using distilled water to produce NaCl/HCl solution. Biorelevant powder (0.015 g) was dissolved in NaCl/HCl solution (125 mL), then made up to 250 mL using NaCl/HCl solution. The prepared solution was ready for use.
Solubility of crystalline Form A and a mixture of crystalline Form A and crystalline Form C was measured in fasted simulated intestinal fluid (FaSSIF), fasted simulated gastric fluid (FaSSGF), and water at 37° C. Thin slurries were stirred overnight and then supernatant was collected for HPLC analysis.
Solubility of crystalline Form H of a hydrochloride salt of Compound (I), crystalline Form Tr of a tartrate salt of Compound (I), and crystalline Form T of a tosylate salt of Compound (I) was measured in fasted state simulated intestinal fluid (FaSSIF), fasted state simulated gastric fluid (FaSSGF), and water at 37° C. About 1.5 mL solution was stirred at 37° C. The salt was then added incrementally until a thin slurry was formed, followed by stirring overnight. The solids were allowed to settle, and the pH of the supernatant was taken. Supernatant was recovered for injection to HPLC and solids were recovered for XRPD.
Solubility was determined based on interpolation from a calibration curve prepared using freebase.

[5] = XRPD of solids recovered from the solubility slurries; format: physicochemical; details: 37° C.; for Stability of crystalline form upon slurrying (XRPD): overnight
Procedure: XRPD: X-ray powder diffraction was done using a Rigaku MiniFlex 600. Samples were prepared on Si zero-return wafers. Typical scans were obtained from 20 of 4 to 30 degrees, with step size 0.05 degrees over five minutes with 40 kV and 15 mA. High resolution scans were obtained from 20 of 4 to 40 degrees, with step size 0.05 degrees over thirty minutes with 40 kV and 15 mA. Typical parameters for XRPD are listed below.
Solids were recovered from the slurries for analysis by XRPD. Crystalline Form H was stable upon slurrying in all solutions. Crystalline Form Tr was stable upon slurrying in water.

Structure (SMILES) | Weight change in DVS experiment ([1]; 2-95% RH at 25° C.) | Weight change in DVS experiment ([1]; 2-95% RH at 40° C.) | Solubility, FaSSGF [4] | Solubility, FaSSIF [4] | Weight change in DVS experiment ([1]; 2-95% RH at room temperature) | also measured
Cn1cc(-c2cc3c(N4CCN(c5ncc([C@@](C)(N)c6ccc(F)cc6)cn5)CC4)ncnn3c2)cn1 [crystalline Form A, (S)-1-(4-fluorophenyl)-1-(2-(4-(6-(1-methyl-1H-pyrazol-4-yl)pyrrolo[2,1-f][1,2,4]triazin-4-yl)piperazin-1-yl)pyrimidin-5-yl)ethan-1-amine] | 0.42% | 0.29% | 2110 µg/mL (≈ 4.23 mM) | – | – | Hygroscopicity by DVS analysis [1]: non-hygroscopic; Weight change in DVS experiment ([1]; 70-95% RH at 40° C.): 0.20%; Moisture uptake by weight ([1]; exposed to 40° C. and up to 95% relative humidity): up to 0.44%; Stability relative to the other crystalline forms [2]: more stable; Severe dose limiting toxicities observed for other TKIs (dermatologic, hepatic, cardiovascular) [3]: did not exhibit; Severity grade of most adverse events reported ([3]; Grades 1-5): Grade 1 or 2
Cn1cc(-c2cc3c(N4CCN(c5ncc([C@@](C)(N)c6ccc(F)cc6)cn5)CC4)ncnn3c2)cn1 [crystalline Form C, (S)-1-(4-fluorophenyl)-1-(2-(4-(6-(1-methyl-1H-pyrazol-4-yl)pyrrolo[2,1-f][1,2,4]triazin-4-yl)piperazin-1-yl)pyrimidin-5-yl)ethan-1-amine] | 2.90% | 2.99% | 2720 µg/mL (≈ 5.46 mM) | 30 µg/mL (≈ 0.0602 mM) | – | Weight change in DVS experiment ([1]; 2-10% RH at 25° C.): 1.76%; Weight change in DVS experiment ([1]; 2-10% RH at 40° C.): 1.93%
Cn1cc(-c2cc3c(N4CCN(c5ncc([C@@](C)(N)c6ccc(F)cc6)cn5)CC4)ncnn3c2)cn1 [crystalline Form H] | – | – | 4180 µg/mL (≈ 8.38 mM) | 100 µg/mL (≈ 0.201 mM) | 15% | Stability of crystalline form upon slurrying (XRPD) ([5]; all solutions (FaSSIF, FaSSGF, water)): stable; Weight change in DVS experiment ([1]; 80-95% RH at room temperature): 10.8%
Cn1cc(-c2cc3c(N4CCN(c5ncc([C@@](C)(N)c6ccc(F)cc6)cn5)CC4)ncnn3c2)cn1 [crystalline Form T] | – | – | 1880 µg/mL (≈ 3.77 mM) | 80 µg/mL (≈ 0.16 mM) | – | –
Cn1cc(-c2cc3c(N4CCN(c5ncc([C@@](C)(N)c6ccc(F)cc6)cn5)CC4)ncnn3c2)cn1 [crystalline Form Tr] | – | – | 4790 µg/mL (≈ 9.61 mM) | 270 µg/mL (≈ 0.542 mM) | 4.4% | Stability of crystalline form upon slurrying (XRPD) ([5]; FaSSGF): converted into crystalline Form H; Behaviour of solid in slurry ([5]; FaSSIF): gummed; Stability of crystalline form upon slurrying (XRPD) ([5]; water): stable
